Assay results taken from the NIST ThermoML archive (doi:10.1021/je7003758).

Assay: xn = mol fraction of the nth substance listed
Details: 298.15 K, Liquid

CCCCCl [1-chlorobutane] + CN1CCCC1=O
Details	mass density [kg/m3]
10000 kPa, x2 = 0.5052	964.7
10000 kPa, x2 = 0.6019	978.3
10000 kPa, x2 = 0.7039	992.4
10000 kPa, x2 = 0.9002	1019.8
10100 kPa, x2 = 0.8011	1006.1
10400 kPa, x2 = 0.4	950.1
10500 kPa, x2 = 0.2002	921.1
10500 kPa, x2 = 0.2974	935.3
10500 kPa, x2 = 0.5052	965
10500 kPa, x2 = 0.6019	978.6
10500 kPa, x2 = 0.7039	992.7
10500 kPa, x2 = 0.8011	1006.3
10500 kPa, x2 = 0.9002	1020.1
10600 kPa, x2 = 0.1004	906.4
10900 kPa, x2 = 0.1004	906.7
10900 kPa, x2 = 0.4	950.4
11000 kPa, x2 = 0.2002	921.5
11000 kPa, x2 = 0.2974	935.6
11000 kPa, x2 = 0.5052	965.4
11000 kPa, x2 = 0.6019	978.9
11000 kPa, x2 = 0.7039	993
11000 kPa, x2 = 0.8011	1006.6
11000 kPa, x2 = 0.9002	1020.4
11400 kPa, x2 = 0.2002	921.9
11400 kPa, x2 = 0.7039	993.3
11500 kPa, x2 = 0.1004	907.2
11500 kPa, x2 = 0.2974	936
11500 kPa, x2 = 0.4	950.8
11500 kPa, x2 = 0.5052	965.7
11500 kPa, x2 = 0.6019	979.3
11500 kPa, x2 = 0.8011	1006.8
11500 kPa, x2 = 0.9002	1020.6
11900 kPa, x2 = 0.2974	936.3
12000 kPa, x2 = 0.1004	907.6
12000 kPa, x2 = 0.2002	922.4
12000 kPa, x2 = 0.4	951.2
12000 kPa, x2 = 0.5052	966
12000 kPa, x2 = 0.6019	979.6
12000 kPa, x2 = 0.7039	993.6
12000 kPa, x2 = 0.8011	1007.1
12000 kPa, x2 = 0.9002	1020.9
12400 kPa, x2 = 0.4	951.6
12400 kPa, x2 = 0.6019	979.8
12400 kPa, x2 = 0.7039	993.9
12500 kPa, x2 = 0.1004	908.1
12500 kPa, x2 = 0.2002	922.8
12500 kPa, x2 = 0.2974	936.8
12500 kPa, x2 = 0.5052	966.4
12500 kPa, x2 = 0.8011	1007.4
12500 kPa, x2 = 0.9002	1021.1
12900 kPa, x2 = 0.8011	1007.6
13000 kPa, x2 = 0.1004	908.5
13000 kPa, x2 = 0.2002	923.2
13000 kPa, x2 = 0.2974	937.1
13000 kPa, x2 = 0.4	951.9
13000 kPa, x2 = 0.5052	966.7
13000 kPa, x2 = 0.6019	980.2
13000 kPa, x2 = 0.7039	994.2
13000 kPa, x2 = 0.9002	1021.4
13400 kPa, x2 = 0.7039	994.5
13500 kPa, x2 = 0.1004	908.9
13500 kPa, x2 = 0.2002	923.6
13500 kPa, x2 = 0.2974	937.6
13500 kPa, x2 = 0.4	952.3
13500 kPa, x2 = 0.5052	967
13500 kPa, x2 = 0.8011	1008
13500 kPa, x2 = 0.9002	1021.7
13600 kPa, x2 = 0.6019	980.6
13900 kPa, x2 = 0.4	952.7
14000 kPa, x2 = 0.2974	937.8
14000 kPa, x2 = 0.5052	967.4
14000 kPa, x2 = 0.7039	994.8
14000 kPa, x2 = 0.8011	1008.2
14000 kPa, x2 = 0.9002	1022
14100 kPa, x2 = 0.1004	909.5
14100 kPa, x2 = 0.2002	924.1
14100 kPa, x2 = 0.6019	981
14400 kPa, x2 = 0.4	953
14400 kPa, x2 = 0.5052	967.7
14400 kPa, x2 = 0.9002	1022.2
14500 kPa, x2 = 0.1004	909.8
14500 kPa, x2 = 0.2002	924.4
14500 kPa, x2 = 0.2974	938.2
14500 kPa, x2 = 0.6019	981.1
14500 kPa, x2 = 0.7039	995.1
14500 kPa, x2 = 0.8011	1008.5
15000 kPa, x2 = 0.1004	910.2
15000 kPa, x2 = 0.2002	924.7
15000 kPa, x2 = 0.2974	938.6
15000 kPa, x2 = 0.4	953.4
15000 kPa, x2 = 0.5052	968
15000 kPa, x2 = 0.6019	981.5
15000 kPa, x2 = 0.8011	1008.8
15000 kPa, x2 = 0.9002	1022.5
15100 kPa, x2 = 0.7039	995.6
15500 kPa, x2 = 0.1004	910.7
15500 kPa, x2 = 0.2002	925.2
15500 kPa, x2 = 0.2974	939
15500 kPa, x2 = 0.4	953.8
15500 kPa, x2 = 0.6019	981.8
15500 kPa, x2 = 0.7039	995.7
15500 kPa, x2 = 0.8011	1009.1
15600 kPa, x2 = 0.5052	968.5
15600 kPa, x2 = 0.9002	1022.8
16000 kPa, x2 = 0.1004	911.1
16000 kPa, x2 = 0.2002	925.6
16000 kPa, x2 = 0.2974	939.4
16000 kPa, x2 = 0.4	954.1
16000 kPa, x2 = 0.5052	968.7
16000 kPa, x2 = 0.6019	982.1
16000 kPa, x2 = 0.7039	996
16000 kPa, x2 = 0.8011	1009.3
16000 kPa, x2 = 0.9002	1023
16400 kPa, x2 = 0.2002	926
16400 kPa, x2 = 0.2974	939.7
16400 kPa, x2 = 0.6019	982.4
16500 kPa, x2 = 0.1004	911.5
16500 kPa, x2 = 0.4	954.4
16500 kPa, x2 = 0.5052	969.1
16500 kPa, x2 = 0.7039	996.3
16500 kPa, x2 = 0.8011	1009.6
16500 kPa, x2 = 0.9002	1023.2
16900 kPa, x2 = 0.2974	940.1
17000 kPa, x2 = 0.1004	911.9
17000 kPa, x2 = 0.2002	926.3
17000 kPa, x2 = 0.4	954.8
17000 kPa, x2 = 0.5052	969.4
17000 kPa, x2 = 0.6019	982.8
17000 kPa, x2 = 0.7039	996.6
17000 kPa, x2 = 0.8011	1009.9
17000 kPa, x2 = 0.9002	1023.4
17400 kPa, x2 = 0.2974	940.5
17400 kPa, x2 = 0.8011	1010.2
17500 kPa, x2 = 0.1004	912.3
17500 kPa, x2 = 0.2002	926.7
17500 kPa, x2 = 0.4	955.2
17500 kPa, x2 = 0.5052	969.7
17500 kPa, x2 = 0.6019	983
17500 kPa, x2 = 0.7039	996.8
17500 kPa, x2 = 0.9002	1023.8
18000 kPa, x2 = 0.1004	912.7
18000 kPa, x2 = 0.2002	927.1
18000 kPa, x2 = 0.2974	940.8
18000 kPa, x2 = 0.5052	970.1
18000 kPa, x2 = 0.7039	997.2
18000 kPa, x2 = 0.8011	1010.5
18000 kPa, x2 = 0.9002	1024
18100 kPa, x2 = 0.4	955.6
18100 kPa, x2 = 0.6019	983.4
18500 kPa, x2 = 0.1004	913.1
18500 kPa, x2 = 0.2002	927.6
18500 kPa, x2 = 0.4	955.8
18500 kPa, x2 = 0.5052	970.3
18500 kPa, x2 = 0.6019	983.6
18500 kPa, x2 = 0.7039	997.5
18500 kPa, x2 = 0.9002	1024.2
18600 kPa, x2 = 0.2974	941.4
18600 kPa, x2 = 0.8011	1010.8
19000 kPa, x2 = 0.1004	913.6
19000 kPa, x2 = 0.2002	928
19000 kPa, x2 = 0.2974	941.7
19000 kPa, x2 = 0.4	956.2
19000 kPa, x2 = 0.5052	970.8
19000 kPa, x2 = 0.6019	984
19000 kPa, x2 = 0.8011	1011
19000 kPa, x2 = 0.9002	1024.5
19100 kPa, x2 = 0.7039	997.9
19400 kPa, x2 = 0.1004	913.9
19500 kPa, x2 = 0.2002	928.3
19500 kPa, x2 = 0.2974	942.1
19500 kPa, x2 = 0.4	956.6
19500 kPa, x2 = 0.5052	971
19500 kPa, x2 = 0.6019	984.3
19500 kPa, x2 = 0.7039	998
19500 kPa, x2 = 0.8011	1011.3
19500 kPa, x2 = 0.9002	1024.8
20000 kPa, x2 = 0.1004	914.5
20000 kPa, x2 = 0.2002	928.7
20000 kPa, x2 = 0.2974	942.6
20000 kPa, x2 = 0.4	957
20000 kPa, x2 = 0.5052	971.4
20000 kPa, x2 = 0.6019	984.6
20000 kPa, x2 = 0.7039	998.4
20000 kPa, x2 = 0.8011	1011.6
20000 kPa, x2 = 0.9002	1025.1
